Source: US6875578B2, “System for cell-based screening” (priority 1997, dated 2005)
“Also recorded” adds a separate entry of the source.

Tests used:
[1] = tested on: MCF-7 cells; assay: Apoptosis mitochondrial mass/potential, MCF-7 cells; assay type: cell-based; conditions: 30 hours
Procedure: Cells were plated into 96-well plates at densities of 3×10^3 to 1×10^4 cells/well. The following day apoptotic inducers were added at the indicated concentrations and cells were incubated for the indicated time periods (usually 16-30 hours). Cells were stained with 5 μg/ml Hoechst (Molecular Probes, Inc.) and 750 nM MITOTRACKER™ Red (CMXRos, Molecular Probes, Inc.) in fresh medium and incubated for 30 minutes at 37° C. Cells were washed in HBSS and fixed with 3.7% formaldehyde in HBSS at room temperature. Plates were washed with HBSS and permeabilized with 0.5% v/v TRITON™ X-100 in HBSS at room temperature. Cells were washed 2× with HBSS at room temperature and the plate was sealed. For dual labeling of mitochondria, cells were treated with 200 nM MITOTRACKER™ Green and 200 nM MITOTRACKER™ Red for 0.5 hours before fixation.
The mitochondrial membrane potential is measured by labeling mitochondria with both MITOTRACKER™ Green FM and MITOTRACKER™ Red (Molecular Probes, mc). MITOTRACKER™ Red labeling is proportional to both mass and membrane potential. MITOTRACKER™ Green FM labeling is proportional to mass. The ratio of MITOTRACKER™ Red signal to the MITOTRACKER™ Green FM signal provides a measure of mitochondrial membrane potential (Poot and Pierce, 1999). This ratio normalizes the […]. […]

[2] = tested on: caspase-3; assay: Caspase-3 biosensor apoptosis assay, MCF-7 cells; assay type: cell-based; conditions: MCF-7 cells transfected with the caspase 3 biosensor
Procedure: (§1) For DNA transfection, BHK cells and MCF-7 cells were cultured to 50-70% confluence in 6 well plates containing 3 ml of minimal Eagle's medium (MEM) with 10% fetal calf serum, 1 mM L-glutamine, 50 μg/ml streptomycin, 50 μg/ml penicillin, 0.1 mM non-essential amino acids, 1 mM sodium pyruvate and 10 μg/ml of bovine insulin (for MCF-7 cell only) at 37° C. in a 5% CO2 incubator for about 36 hours. The cells were washed with serum free MEM media and incubated for 5 hours with 1 ml of transfection mixture containing 1 μg of the appropriate plasmid and 4 μg of lipofectimine (BRL) in the serum free MEM media. Subsequently, the transfection medium was removed and replaced with 3 ml of normal culture media. The transfected cells were maintained in growth medium for at least 16 hours before performing selection of the stable cells based on standard molecular biology methods (Ausubel. et al 1995).
For apoptosis assays, the cells (BHK, MCF-7) stably transfected with the appropriate protease biosensor expression vector were plated on tissue culture treated 96-well plates at 50-60% confluence and cultured overnight at 37° C., 5% CO2. Varying concentrations of cis-platin, staurosporine, or paclitaxel in normal culture media were freshly prepared from stock and added to cell culture dishes to replace the old culture media. The cells were then observed with the cell screening system of the present invention at the indicated time points either as live cell experiments or as fixed end-point experiments.
This biosensor is restricted to the cytoplasm by the reactant target sequence. The reactant target sequence is the annexin II cytoskeletal binding domain ([…]) (SEQ ID NO:124) (FIG. 29C) (Eberhard et al. 1997. Mol. Biol. Cell 8:293a). The enzyme recognition site corresponds to two copies of the amino acid sequence DEVD (SEQ ID NO:60) (FIG. 29B), which serves as the recognition site of caspase-3. […]
(§2) The biosensor response is measured by quantitating the effective cytoplasm-to-nuclear translocation of the signal (see above). […]

[3] = tested on: caspase-3; assay: Caspase-3 biosensor apoptosis assay, BHK cells; assay type: cell-based; conditions: BHK cells transfected with the caspase 3 biosensor
Procedure: as §1
For apoptosis assays, the cells (BHK, MCF-7) stably transfected with the appropriate protease biosensor expression vector were plated on tissue culture treated 96-well plates at 50-60% confluence and cultured overnight at 37° C., 5% CO2. […]
as §2

[4] = tested on: BHK cells; assay: Apoptosis nuclear morphology, BHK cells; assay type: cell-based; conditions: 30 hours
Procedure: (§3) Cells were plated into 96-well plates at densities of 3×10^3 to 1×10^4 cells/well. The following day apoptotic inducers were added at indicated concentrations and cells were incubated for indicated time periods (usually 16-30 hours). The next day medium was removed and cells were stained with 5 μg/ml Hoechst (Molecular Probes, Inc.) in fresh medium and incubated for 30 minutes at 37° C. Cells were washed in Hank's Balanced Salt Solution (HBSS) and fixed with 3.7% formaldehyde in HBSS at room temperature. Cells were washed 2×with HBSS at room temperature and the plate was sealed.
(§4) Quantitation of changes in nuclear morphology upon induction of apoptosis was accomplished by (1) measuring the effective size of the nuclear region; and (2) measuring the degree of convolution of the perimeter.

[5] = tested on: microtubule arrays (tubulin-GFP chimera); assay: Microtubule disruption assay, LLCPK cells with tubulin-GFP biosensor; assay type: cell-based, pig; conditions: 10-500 nM, 12 hour time point
Procedure: For microtubule disruption assays, LLCPK cells stably transfected with a tubulin-GFP biosensor plasmid were plated on 96 well cell culture dishes at 50-60% confluence and cultured overnight at 37° C., 5% CO2. […] The cells were then observed with the cell screening system described above, at a 12 hour time point.

[6] = tested on: MCF-7 cells; assay: Apoptosis nuclear morphology, MCF-7 cells; assay type: cell-based; conditions: 30 hours
Procedure: as §3, §4

[7] = tested on: L929 cells; assay: Apoptosis nuclear morphology, L929 cells; assay type: cell-based, mouse; conditions: 30 hours
Procedure: as §3, §4

`CC(=O)O[C@H]1C(=O)[C@@]2(C)[C@H]([C@H](OC(=O)c3ccccc3)[C@]3(O)C[C@H](OC(=O)[C@H](O)[C@@H](NC(=O)c4ccccc4)c4ccccc4)C(C)=C1C3(C)C)[C@]1(OC(C)=O)CO[C@@H]1C[C@@H]2O` [paclitaxel] was tested, and the “mitochondrial changes (mass / membrane potential)” value [1] was “consistent increases in mitochondrial mass; also recorded: an increase in mitochondrial mass”, the “caspase activation reported by the biosensor” value [2] was “stimulated” and the “caspase activation reported by the biosensor” value [3] was “stimulated”. For the same compound, the “change in nuclear morphology” value [4] was “consistent increase in nuclear fragmentation with increasing concentrations; also recorded: a more classical response”, the “Response of microtubule arrays” value [5] was “Stabilization” and the “change in nuclear morphology” value [6] was “nuclear fragmentation”. The “change in nuclear morphology” value [7] was “dose-dependent change in nuclear morphology; also recorded: classic nuclear fragmentation”.
